The target in this assay is T1, α3β3γ complex of BF1 (F1-ATPase from Bacillus subtilis) (Bacillus subtilis, UniProt P37808+P37809, P37808:R354W).
T1 construct: gene atpA; recombinant alpha3beta3gamma subcomplex of F1-ATPase (no delta, no epsilon), from plasmid pET21-BF1; with ATP synthase gamma chain
The assay can be described thus: tryptophan fluorescence quenching titration (ex […] nm, em […] nm), simple binding equation. The note with it: read-out: apparent Kd.

T1 sequence (P37809 whole entry): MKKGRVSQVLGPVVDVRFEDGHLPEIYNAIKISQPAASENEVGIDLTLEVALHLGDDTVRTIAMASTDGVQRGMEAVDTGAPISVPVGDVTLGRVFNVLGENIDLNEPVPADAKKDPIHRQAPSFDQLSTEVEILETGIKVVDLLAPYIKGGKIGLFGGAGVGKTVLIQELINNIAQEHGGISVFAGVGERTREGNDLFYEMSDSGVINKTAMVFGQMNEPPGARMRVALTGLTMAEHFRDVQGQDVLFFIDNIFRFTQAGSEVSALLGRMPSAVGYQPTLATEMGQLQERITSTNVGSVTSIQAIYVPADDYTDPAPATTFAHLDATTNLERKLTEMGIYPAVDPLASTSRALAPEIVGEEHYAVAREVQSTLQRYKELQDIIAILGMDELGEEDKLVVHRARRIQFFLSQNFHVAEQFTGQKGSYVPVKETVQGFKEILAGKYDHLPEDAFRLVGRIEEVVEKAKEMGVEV
T1 sequence (P37810 whole entry, further chain): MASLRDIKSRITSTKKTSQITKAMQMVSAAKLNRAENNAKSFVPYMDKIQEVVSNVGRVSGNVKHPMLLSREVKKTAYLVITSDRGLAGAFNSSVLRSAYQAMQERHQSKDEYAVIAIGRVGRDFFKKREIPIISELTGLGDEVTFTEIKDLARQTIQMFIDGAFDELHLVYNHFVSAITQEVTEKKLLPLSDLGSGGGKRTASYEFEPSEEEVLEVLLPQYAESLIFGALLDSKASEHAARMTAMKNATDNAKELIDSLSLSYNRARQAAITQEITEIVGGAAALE
T1 sequence (P37808 2-502 R354W): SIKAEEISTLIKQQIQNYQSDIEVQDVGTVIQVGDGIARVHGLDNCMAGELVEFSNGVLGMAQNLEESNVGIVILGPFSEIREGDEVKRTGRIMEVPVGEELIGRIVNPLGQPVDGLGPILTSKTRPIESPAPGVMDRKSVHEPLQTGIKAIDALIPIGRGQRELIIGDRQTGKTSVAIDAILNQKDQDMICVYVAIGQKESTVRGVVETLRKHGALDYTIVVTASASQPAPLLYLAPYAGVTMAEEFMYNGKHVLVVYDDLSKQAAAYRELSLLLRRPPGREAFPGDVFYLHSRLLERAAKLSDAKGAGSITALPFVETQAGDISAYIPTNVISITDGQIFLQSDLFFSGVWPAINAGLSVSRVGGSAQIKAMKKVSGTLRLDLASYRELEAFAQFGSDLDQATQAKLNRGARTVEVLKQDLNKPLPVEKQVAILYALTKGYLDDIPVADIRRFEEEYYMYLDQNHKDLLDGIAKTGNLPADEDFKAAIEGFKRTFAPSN

Turning to `Nc1ncnc2c1ncn2[C@@H]1O[C@H](COP(=O)(O)OP(=O)(O)OP(=O)(O)O)[C@@H](O)[C@H]1O` [ATP], the Kd came to 34.4 ± 2.9 µM.

(Values after publication PMC4171097, “Severe MgADP Inhibition of Bacillus subtilis F1-ATPase Is Not Due to the Absence of Nucleotide Binding to the Noncatalytic Nucleotide Binding Sites” (PLoS ONE, 2014).)
